From ChEMBL document CHEMBL2440076, “New triarylpyrazoles as broad-spectrum anticancer agents: design, synthesis, and biological evaluation” (Eur J Med Chem, 2013)

Experiments:
[1] = tested on: BT-549; assay: Growth inhibition of human BT549 cells assessed as cell growth at 10 uM after 48 hrs by sulforhodamine B assay; assay type: functional; settings: BT-549, 48 h, read-out: Activity
[2] = tested on: PC-3; assay: Growth inhibition of human PC3 cells assessed as cell growth at 10 uM after 48 hrs by sulforhodamine B assay; assay type: functional; settings: PC-3, 48 h, read-out: Activity
[3] = tested on: TK-10; assay: Growth inhibition of human TK10 cells assessed as cell growth at 10 uM after 48 hrs by sulforhodamine B assay; assay type: functional; settings: TK-10, 48 h, read-out: Activity
[4] = tested on: SN12C; assay: Growth inhibition of human SN12C cells assessed as cell growth at 10 uM after 48 hrs by sulforhodamine B assay; assay type: functional; settings: read-out: Activity
[5] = tested on: CAKI-1; assay: Growth inhibition of human CAKI-1 cells assessed as cell growth at 10 uM after 48 hrs by sulforhodamine B assay; assay type: functional; settings: CAKI-1, 48 h, read-out: Activity
[6] = tested on: SW-620; assay: Growth inhibition of human SW620 cells after 48 hrs by sulforhodamine B assay; assay type: functional; settings: SW-620, 48 h
[7] = tested on: HT-29; assay: Growth inhibition of human HT-29 cells after 48 hrs by sulforhodamine B assay; assay type: functional; settings: HT-29, 48 h
[8] = tested on: KM12; assay: Growth inhibition of human KM12 cells after 48 hrs by sulforhodamine B assay; assay type: functional, cell-based; settings: KM12, 48 h
[9] = tested on: NCI-H522; assay: Growth inhibition of human NCI-H522 cells after 48 hrs by sulforhodamine B assay; assay type: functional; settings: NCI-H522, 48 h
[10] = tested on: NCI-H23; assay: Growth inhibition of human NCI-H23 cells after 48 hrs by sulforhodamine B assay; assay type: functional; settings: NCI-H23, 48 h
[11] = tested on: SR; assay: Growth inhibition of human SR cells after 48 hrs by sulforhodamine B assay; assay type: functional
[12] = tested on: CCRF-CEM; assay: Growth inhibition of human CCRF-CEM cells after 48 hrs by sulforhodamine B assay; assay type: functional
[13] = tested on: SK-MEL-5; assay: Growth inhibition of human SK-MEL-5 cells assessed as cell growth at 10 uM after 48 hrs by sulforhodamine B assay; assay type: functional; settings: SK-MEL-5, 48 h, read-out: Activity
[14] = tested on: SK-MEL-28; assay: Growth inhibition of human SK-MEL-28 cells assessed as cell growth at 10 uM after 48 hrs by sulforhodamine B assay; assay type: functional; settings: SK-MEL-28, 48 h, read-out: Activity
[15] = tested on: Malme-3M; assay: Growth inhibition of human MALME-3M cells assessed as cell growth at 10 uM after 48 hrs by sulforhodamine B assay; assay type: functional; settings: read-out: Activity
[16] = tested on: U-251; assay: Growth inhibition of human U251 cells assessed as cell growth at 10 uM after 48 hrs by sulforhodamine B assay; assay type: functional; settings: U-251, 48 h, read-out: Activity
[17] = tested on: SW-620; assay: Growth inhibition of human SW620 cells assessed as cell growth at 10 uM after 48 hrs by sulforhodamine B assay; assay type: functional; settings: SW-620, 48 h, read-out: Activity
[18] = tested on: HT-29; assay: Growth inhibition of human HT-29 cells assessed as cell growth at 10 uM after 48 hrs by sulforhodamine B assay; assay type: functional; settings: HT-29, 48 h, read-out: Activity
[19] = tested on: KM12; assay: Growth inhibition of human KM12 cells assessed as cell growth at 10 uM after 48 hrs by sulforhodamine B assay; assay type: functional; settings: KM12, 48 h, read-out: Activity
[20] = tested on: NCI-H23; assay: Growth inhibition of human NCI-H23 cells assessed as cell growth at 10 uM after 48 hrs by sulforhodamine B assay; assay type: functional; settings: NCI-H23, 48 h, read-out: Activity
[21] = tested on: HOP-92; assay: Growth inhibition of human HOP92 cells assessed as cell growth at 10 uM after 48 hrs by sulforhodamine B assay; assay type: functional; settings: HOP-92, 48 h, read-out: Activity
[22] = tested on: MCF7; assay: Growth inhibition of human MCF7 cells after 48 hrs by sulforhodamine B assay; assay type: functional; settings: MCF7, 48 h
[23] = tested on: RXF 393; assay: Growth inhibition of human RXF393 cells after 48 hrs by sulforhodamine B assay; assay type: functional; settings: RXF 393, 48 h
[24] = tested on: CAKI-1; assay: Growth inhibition of human CAKI-1 cells after 48 hrs by sulforhodamine B assay; assay type: functional; settings: CAKI-1, 48 h
[25] = tested on: A498; assay: Growth inhibition of human A498 cells after 48 hrs by sulforhodamine B assay; assay type: functional, cell-based; settings: A498, 48 h
[26] = tested on: ACHN; assay: Growth inhibition of human ACHN cells after 48 hrs by sulforhodamine B assay; assay type: functional
[27] = tested on: OVCAR-8; assay: Growth inhibition of human OVCAR8 cells after 48 hrs by sulforhodamine B assay; assay type: functional; settings: OVCAR-8, 48 h
[28] = tested on: OVCAR-5; assay: Growth inhibition of human OVCAR5 cells after 48 hrs by sulforhodamine B assay; assay type: functional; settings: OVCAR-5, 48 h
[29] = tested on: OVCAR-4; assay: Growth inhibition of human OVCAR4 cells after 48 hrs by sulforhodamine B assay; assay type: functional; settings: OVCAR-4, 48 h
[30] = tested on: SK-MEL-5; assay: Growth inhibition of human SK-MEL-5 cells after 48 hrs by sulforhodamine B assay; assay type: functional; settings: SK-MEL-5, 48 h
[31] = tested on: UACC-257; assay: Growth inhibition of human UACC257 cells after 48 hrs by sulforhodamine B assay; assay type: functional; settings: UACC-257, 48 h
[32] = tested on: U-251; assay: Growth inhibition of human U251 cells after 48 hrs by sulforhodamine B assay; assay type: functional; settings: U-251, 48 h
[33] = tested on: HOP-62; assay: Growth inhibition of human HOP62 cells assessed as cell growth at 10 uM after 48 hrs by sulforhodamine B assay; assay type: functional; settings: HOP-62, 48 h, read-out: Activity
[34] = tested on: A549; assay: Growth inhibition of human A549/ATCC cells assessed as cell growth at 10 uM after 48 hrs by sulforhodamine B assay; assay type: functional; settings: A549, 48 h, read-out: Activity
[35] = tested on: RPMI-8226; assay: Growth inhibition of human RPMI8226 cells assessed as cell growth at 10 uM after 48 hrs by sulforhodamine B assay; assay type: functional; settings: RPMI-8226, 48 h, read-out: Activity
[36] = read-out: LC50 (the source's name)

COc1cc(-c2nn(-c3cccc(NC(=O)c4ccccc4)c3)cc2-c2ccncc2)ccc1Cl
growth at 10 µM [1]: 1.29% | growth at 10 µM [2]: 10.5% | growth at 10 µM [3]: 31% | growth at 10 µM [4]: 28.8% | growth at 10 µM [5]: 40.6% | GI50 [6]: 0.551 µM | TGI [6]: > 100 µM | CC50 [6, 36]: > 100 µM | GI50 [7]: 0.392 µM | TGI [7]: > 100 µM | CC50 [7, 36]: > 100 µM | GI50 [8]: 0.556 µM | IC50 [8]: 0.56 µM | TGI [8]: > 100 µM | CC50 [8, 36]: > 100 µM | GI50 [9]: 0.317 µM | LC50 (concentration killing 50% of cells) [9]: > 100 µM | TGI [9]: > 100 µM | GI50 [10]: 2.02 µM | LC50 [10]: > 100 µM | TGI [10]: > 100 µM | GI50 [11]: 0.25 µM | TGI [11]: > 100 µM | CC50 [11, 36]: > 100 µM | GI50 [12]: 0.492 µM | LC50 [12]: > 100 µM | TGI [12]: > 100 µM | growth at 10 µM [13]: -49.4% | growth at 10 µM [14]: 34.4% | growth at 10 µM [15]: 22.4% | growth at 10 µM [16]: 13.5% | growth at 10 µM [17]: 18.4% | growth at 10 µM [18]: 2.03% | growth at 10 µM [19]: 12.3% | growth at 10 µM [20]: 33.8% | growth at 10 µM [21]: 9.19% | GI50 [22]: 0.335 µM | LC50 [22]: > 100 µM | TGI [22]: > 100 µM | GI50 [23]: 0.646 µM | LC50 (concentration killing 50% of cells) [23]: > 100 µM | TGI [23]: 6.34 µM | GI50 [24]: 1.16 µM | TGI [24]: > 100 µM | CC50 [24, 36]: > 100 µM | GI50 [25]: 0.361 µM | IC50 [25]: 0.36 µM | TGI [25]: 3.14 µM | CC50 [25, 36]: > 100 µM | GI50 [26]: 0.754 µM | TGI [26]: > 100 µM | CC50 [26, 36]: > 100 µM | GI50 [27]: 0.995 µM | TGI [27]: > 100 µM | CC50 [27, 36]: > 100 µM | GI50 [28]: 15 µM | LC50 (concentration killing 50% of cells) [28]: > 100 µM | TGI [28]: > 100 µM | GI50 [29]: 1.17 µM | LC50 (concentration killing 50% of cells) [29]: > 100 µM | TGI [29]: > 100 µM | GI50 [30]: 0.319 µM | LC50 (concentration killing 50% of cells) [30]: 7.1 µM | TGI [30]: 1.38 µM | GI50 [31]: 0.859 µM | TGI [31]: > 100 µM | CC50 [31, 36]: > 100 µM | GI50 [32]: 0.661 µM | LC50 (concentration killing 50% of cells) [32]: > 100 µM | TGI [32]: 30.8 µM | growth at 10 µM [33]: 27.1% | growth at 10 µM [34]: 4.81% | growth at 10 µM [35]: 9.39%
